Test results published in US20120152149A1, “USE OF 1,3-DIOLS AS BIOCIDES” (BASF SE, priority 2009, published 2012).
Read-outs that look alike come from different tables or passages of the source.

Columns and labels:
Type in all cases: cell-based
C. albicans ATCC 10231 [1] = assay: Preservation stress test, example formulation 1 (standard emulsion O/W); details: 1% active substance
Description: (§1) Preservation stress tests (PSTs) were carried out in order to determine the preserving activity of the diols. In the preservation stress test, this is simulated through artificial loadings with microorganisms. These can either be inoculated as mixed population or individually in mixtures independent of one another. The inoculated product samples are incubated under defined conditions and, after defined times, samples are taken in order to determine the germ loading. In the case of adequate preservation, the number of microorganisms should, depending on the type, either decrease or remain constant in order to satisfy the requirements specified, e.g. in Ph. Eur. 6.0. To investigate the preserving effect of the diols, application-typical amounts of the diols were incorporated into example formulations. […] [table] These example formulations were used to prepare various mixtures which each comprised 1% active substance or comprised water instead of the active substance as placebo mixtures. These mixtures were in each case inoculated with the test germs such that a germ loading of 10^5-10^6 CFU/g was present in the test mixture. The bacteria were either used individually for the inoculation or as a mixed culture. To determine the starting germ count, immediately after inoculation, an aliquot was taken, diluted in dilution medium (phosphate buffer, 0.07 molar pH 7.4 (+/−0.2), with 1% Tween 80+0.3% soya lecithin), and the surviving germ count was determined in the dilution stages 10^−1 to 10^−3. The inoculated product samples then incubated for a total of 28 d at 20-25° C. After 2 d, 7 d, 14 d and after 28 d, aliquots were taken and diluted in dilution medium (phosphate buffer, 0.07 molar pH 7.4 (+/−0.2), with 1% Tween 80+0.3% soya lecithin). The surviving germ counts were determined in the dilution stages 10^−1 to 10^−4. The reference point taken for determining the reduction in germ count was the respective initial value of the sample. The results were given as logarithmic reductions.

A. niger ATCC 16404 [2] = assay: as above; details: 1% active substance
Description: as §1

[3] = test system: series of tested microorganisms (bacteria and fungi); assay: Microstatic activity, highest MIC from the series of tested microorganisms; details: highest measured MIC from the series of tested microorganisms
Description: The following microorganisms were used;to test the biocidal effect against various bacteria and fungi: In each case, the MIC (Minimum Inhibitory Concentration) value was determined. This value indicates the minimum concentration above which the growth of the microorganisms was visibly hindered compared to the corresponding sample without addition of the diol. The MIC value stated is a range between the next higher concentration of a positive test and the same and/or lower concentration of a first negative test. In the last line of each of the tables below, a “maximum” value is listed. This value indicates the highest measured MIC value in each case from the series of tested microorganisms.

C. albicans NCPF 3179 = assay: Microstatic activity, MIC in tryptone soy broth; details: Candida albicans, NCPF3179, 120 h, 25° C., 5 days
Description: (§2) For this, in each case a 40 percent strength by weight solution of a diol in propylene glycol was prepared at 60° C. This solution was diluted with a double-strength soy solution (double-strength tryptone soy broth) as nutrient medium in the volume ratio 1:1. Further dilution with soy solution produced solutions with the following concentrations: 400 000 ppm (40%), 200 000 ppm (20%), 100 000 ppm (10%), 50 000 ppm (5%), 25 000 ppm (2.5%), 12 500 ppm (1.25%), 6250 ppm (0.625%), 3125 ppm (0.3125%). Pure soy solution was used as negative control. The positive control used was a solution of 5 ml of soy solution which has been treated with 0.1 ml of the respective microorganism. The test solutions consisted of 5 ml of the above-described soy solutions of the diols in the particular concentration which have been mixed with 0.1 ml of the respective microorganism. The samples and controls were incubated in the case of the bacteria at 30° C. for 48 hours, and in the case of fungi over 5 days at 25° C. In each case, the MIC (Minimum Inhibitory Concentration) value was determined. This value indicates the minimum concentration above which the growth of the microorganisms was visibly hindered compared to the corresponding sample without addition of the diol. […] For example, this was evident from the occurrence of clouding or visible growth of the microorganism. […] The MIC value stated is a range between the next higher concentration of a positive test and the same and/or lower concentration of a first negative test.

P. vulgaris NCIMB 4175 = assay: Microstatic activity, MIC in tryptone soy broth; details: Proteus vulgaris, NCIMB4175, 30° C., 48 hours
Description: as §2

E. coli NCIMB 8545 = assay: Microstatic activity, MIC in tryptone soy broth; details: Escherichia coli, NCIMB8545, 30° C., 48 hours
Description: as §2

A. niger IMI 149007 = assay: Microstatic activity, MIC in tryptone soy broth; details: Aspergillus niger, IMI149007, 120 h, 25° C., 5 days
Description: as §2

[4] = test system: P. aeruginosa NCIMB 10421; assay: Microstatic activity, MIC in tryptone soy broth; details: Pseudomonas aeruginosa, NCIMB10421, 30° C., 48 hours
Description: as §2

S. aureus NCIMB 9578 = assay: Microstatic activity, MIC in tryptone soy broth; details: Staphylococcus aureus, NCIMB9578, 30° C., 48 hours
Description: as §2

C. albicans ATCC 10231 [5] = assay: Preservation stress test, example formulation 2 (roll-on deodorant formulation); details: 1% active substance
Description: as §1

E. coli ATCC 10536 = assay: as above; details: 1% active substance
Description: as §1

A. niger ATCC 16404 [6] = assay: as above; details: 1% active substance
Description: as §1

[7] = lower limit, read-out: Maximum MIC value (ppm of diol), from
[8] = upper limit, read-out: Maximum MIC value (ppm of diol), to
[9] = lower limit of MIC range, read-out: MIC value (ppm of diol), from
[10] = upper limit of MIC range, read-out: MIC value (ppm of diol), to

| Compound | Microbicidal activity given as logarithmic reduction in germ count (C. albicans ATCC 10231 [1]; 48 h) | Microbicidal activity given as logarithmic reduction in germ count (C. albicans ATCC 10231 [1]; 7 d) | Microbicidal activity given as logarithmic reduction in germ count (C. albicans ATCC 10231 [1]; 14 d) [log. Red.] | Microbicidal activity given as logarithmic reduction in germ count (A. niger ATCC 16404 [2]; 48 h) [log. Red.] | Microbicidal activity given as logarithmic reduction in germ count (A. niger ATCC 16404 [2]; 7 d) [log. Red.] | Microbicidal activity given as logarithmic reduction in germ count (A. niger ATCC 16404 [2]; 14 d) [log. Red.] | MIC [3, 7] [mg/mL] | MIC [3, 8] [mg/mL] | MIC (C. albicans NCPF 3179; [9]) [mg/mL] | MIC (C. albicans NCPF 3179; [10]) [mg/mL] | MIC (P. vulgaris NCIMB 4175; [9]) [mg/mL] | MIC (P. vulgaris NCIMB 4175; [10]) [mg/mL] | MIC (E. coli NCIMB 8545; [9]) [mg/mL] | MIC (E. coli NCIMB 8545; [10]) [mg/mL] | MIC (A. niger IMI 149007; [9]) [mg/mL] | MIC (A. niger IMI 149007; [10]) [mg/mL] | MIC [4, 9] [mg/mL] | MIC [4, 10] [mg/mL] | MIC (S. aureus NCIMB 9578; [9]) [mg/mL] | MIC (S. aureus NCIMB 9578; [10]) [mg/mL] | also measured |
| --- | --- | --- | --- | --- | --- | --- | --- | --- | --- | --- | --- | --- | --- | --- | --- | --- | --- | --- | --- | --- | --- |
| CCCC(O)CO (stereo not drawn) [1,2-Pentanediol, 1,2-pentanediol, reference compound] | 0 log. Red. | 0 log. Red. | 0 | 0 | 0 | 0 | > 25 | ≤ 50 | > 25 | ≤ 50 | > 25 | ≤ 50 | > 25 | ≤ 50 | > 12.5 | ≤ 25 | > 12.5 | ≤ 25 | > 25 | ≤ 50 | Microbicidal activity given as logarithmic reduction in germ count (C. albicans ATCC 10231 [5]; 48 h): 0 log. Red.; Microbicidal activity given as logarithmic reduction in germ count (C. albicans ATCC 10231 [5]; 7 d): 0 log. Red.; Microbicidal activity given as logarithmic reduction in germ count (C. albicans ATCC 10231 [5]; 14 d): 0 log. Red.; Microbicidal activity given as logarithmic reduction in germ count (E. coli ATCC 10536; 48 h): 0 log. Red.; Microbicidal activity given as logarithmic reduction in germ count (E. coli ATCC 10536; 7 d): 1 log. Red.; Microbicidal activity given as logarithmic reduction in germ count (E. coli ATCC 10536; 14 d): 1 log. Red.; Microbicidal activity given as logarithmic reduction in germ count (A. niger ATCC 16404 [6]; 48 h): 0 log. Red.; Microbicidal activity given as logarithmic reduction in germ count (A. niger ATCC 16404 [6]; 7 d): 0 log. Red.; Microbicidal activity given as logarithmic reduction in germ count (A. niger ATCC 16404 [6]; 14 d): 0 log. Red. |
| OCC1(CO)CC2CCC1C2 (stereo not drawn) [2,2-DMNB, 2,2-dimethylolnorbornane] | 1 log. Red. | ≧3 log. Red. | 5 | 0 | 0 | 0 | > 50 | ≤ 100 | > 50 | ≤ 100 | > 6.25 | ≤ 12.5 | > 3.12 | ≤ 6.25 | > 25 | ≤ 50 | > 12.5 | ≤ 25 | > 12.5 | ≤ 25 | Microbicidal activity given as logarithmic reduction in germ count (C. albicans ATCC 10231 [1]; 28 d): 5 log. Red.; Microbicidal activity given as logarithmic reduction in germ count (A. niger ATCC 16404 [2]; 28 d): 0 log. Red.; Microbicidal activity given as logarithmic reduction in germ count (C. albicans ATCC 10231 [5]; 48 h): 0 log. Red.; Microbicidal activity given as logarithmic reduction in germ count (C. albicans ATCC 10231 [5]; 7 d): ≧3 log. Red.; Microbicidal activity given as logarithmic reduction in germ count (C. albicans ATCC 10231 [5]; 14 d): 0 log. Red.; Microbicidal activity given as logarithmic reduction in germ count (E. coli ATCC 10536; 48 h): 2 log. Red.; Microbicidal activity given as logarithmic reduction in germ count (E. coli ATCC 10536; 7 d): ≧3 log. Red.; Microbicidal activity given as logarithmic reduction in germ count (E. coli ATCC 10536; 14 d): 5 log. Red.; Microbicidal activity given as logarithmic reduction in germ count (E. coli ATCC 10536; 28 d): 5 log. Red.; Microbicidal activity given as logarithmic reduction in germ count (A. niger ATCC 16404 [6]; 48 h): 0 log. Red.; Microbicidal activity given as logarithmic reduction in germ count (A. niger ATCC 16404 [6]; 7 d): 0 log. Red.; Microbicidal activity given as logarithmic reduction in germ count (A. niger ATCC 16404 [6]; 14 d): 0 log. Red. |
| OCC1(CO)CCCC1 [DMCP, 1,1-dimethylolcyclopentane] | ≧3 log. Red. | 5 log. Red. | 5 | 2 | 1 | 2 | > 50 | ≤ 100 | > 25 | ≤ 50 | > 12.5 | ≤ 25 | > 3.12 | ≤ 6.25 | > 50 | ≤ 100 | > 12.5 | ≤ 25 | > 3.12 | ≤ 6.25 | Microbicidal activity given as logarithmic reduction in germ count (C. albicans ATCC 10231 [1]; 28 d): 5 log. Red.; Microbicidal activity given as logarithmic reduction in germ count (A. niger ATCC 16404 [2]; 28 d): 2 log. Red.; Microbicidal activity given as logarithmic reduction in germ count (C. albicans ATCC 10231 [5]; 48 h): 0 log. Red.; Microbicidal activity given as logarithmic reduction in germ count (C. albicans ATCC 10231 [5]; 7 d): 0 log. Red.; Microbicidal activity given as logarithmic reduction in germ count (C. albicans ATCC 10231 [5]; 14 d): 0 log. Red.; Microbicidal activity given as logarithmic reduction in germ count (E. coli ATCC 10536; 48 h): 1 log. Red.; Microbicidal activity given as logarithmic reduction in germ count (E. coli ATCC 10536; 7 d): 3 log. Red.; Microbicidal activity given as logarithmic reduction in germ count (E. coli ATCC 10536; 14 d): 5 log. Red.; Microbicidal activity given as logarithmic reduction in germ count (E. coli ATCC 10536; 28 d): 5 log. Red.; Microbicidal activity given as logarithmic reduction in germ count (A. niger ATCC 16404 [6]; 48 h): 0 log. Red.; Microbicidal activity given as logarithmic reduction in germ count (A. niger ATCC 16404 [6]; 7 d): 0 log. Red.; Microbicidal activity given as logarithmic reduction in germ count (A. niger ATCC 16404 [6]; 14 d): 0 log. Red. |
